B1: transforming growth factor-beta 2 (protein, UniProt P61812 303-414, looked up)
Transforming growth factor …: ALDAAYCFRNVQDNCCLRPLYIDFKRDLGWKWIHEPKGYNANFCAGACPYLWSSDTQHSRVLSLYNTINPEASASPCCVSQDLEPLTILYYIGKTPKIEQLSNMIVKSCKCS

Assays:
[1] = tested on: stromal layer of the basement membrane+stromal layer artificial skin model; assay: Inhibition of tissue contraction of basement membrane+stromal layer artificial skin model by blebbistatin; assay type: cell-based
Procedure: Additionally, the basement membrane+stromal layer model without epithelial cells (Example 1-4) was produced and incubated for 24 hours under conditions of 37° C. and 5% CO2.
After incubation, each sample was imaged with a confocal fluorescence microscope at a wavelength of 488 nm, and the images were synthesized into two-dimensional images by max intensity projection using the ImageJ imaging program. […] However, it could be seen that, in the sample in which tissue contraction had already occurred, tissue contraction was maintained even after subsequent treatment with blebbistatin.

[2] = tested on: stromal cells (fibroblasts) in the stromal layer; assay: Tissue contraction of basement membrane+stromal layer artificial skin model incubated with TGF-β2; assay type: cell-based; settings: 10 ng/ml TGF-β2 added to DMEM + 10% FBS + 1% P/S; 96 hours, 37° C., 5% CO2; model without epithelial cells (FIGS. 5 and 6)
Procedure: In order to form wavy ridges in the stromal layer corresponding to the dermal layer of normal skin tissue, tissue contraction is required at the stromal layer boundary that is in contact with the basement membrane. In order to confirm whether the artificial skin model of the present disclosure can mimic this function, a basement membrane+stromal layer model without epithelial cells (Example 1-4) was produced, incubated under conditions of 37° C. and 5% CO2 for 96 hours. Incubation was performed using DMEM containing 10% FBS (fetal bovine serum) and 1% P/S (penicillin/streptomycin), and 10 ng/ml of TGF-β2 (transforming growth factor-beta 2) was additionally added to the test group. FIGS. 5 and 6, respectively, show the results of imaging the incubated model and the results of quantifying the image size relative to the control strain (0) based on 6 mm. The physical property was measured with Anton Paar MCR 92. […] This is believed to be because TGF-β2 increased contraction by activating stromal cells (fibroblasts) in the stromal layer. Therefore, in the following study, a medium supplemented with 10 ng/ml of TGF-β2 was used.

| Molecule | tissue contraction at the stromal layer boundary ([1]; 10 μM blebbistatin in control medium (with 10 ng/ml TGF-β2) from the beginning, 24 hours (group Bleb; FIG. 7)) | tissue contraction at the stromal layer boundary ([1]; 12 hours control medium, then 12 hours with 10 μM blebbistatin, tissue contraction already occurred (group Bleb after 12 hours; FIG. 7)) | tissue contraction at the boundary of the stromal layer [2] |
| --- | --- | --- | --- |
| Cc1ccc2c(c1)C(=O)C1(O)CCN(c3ccccc3)C1=N2 (stereo not drawn) [blebbistatin] | inhibited | maintained | – |
| B1 | – | – | well induced |
